Where two headings read alike, the source gives them in different places.
How the values were obtained:
[1] = tested on: male CD [Crl:CD(SD)] rats; experiment: Conditioned place preference (CPP) study, abuse liability assessment; assay type: in vivo, rat; details: for Conditioned place preference score for CS+ (percentage of time in the 2 conditioning compartments), Mean / Conditioned place preference score for CS+, LSMean (least squares mean): 20 mg/kg oral gavage (positive control)
Experimental: Purpose: A conditioned place preference (CPP) study was conducted in rats to evaluate the abuse potential of exemplary aqueous A. muscaria extract AME-1. The CPP study is a standard behavioral model used for studying the reward and aversive effects of a compound and is designed to determine the reinforcing properties of drugs of abuse using classical Pavlovian conditioning. Accordingly, the CPP paradigm provides for a rapid measurement of the positive reinforcing or aversive properties of a test sample, in this case, AME-1.
Methods: Four treatment groups of 8 male CD® [Crl:CD®(SD)] rats were exposed to unique environmental cues associated with a conditioned stimuli (CS+) or saline (CS−) in a 3-chamber straight alleyway system. Following a habituation phase (Week −1) during which compartment preference was determined for each animal, the conditioning phase (Week 1 and Week 2) was conducted during which compartments 1 and 3 were paired with the test and control articles or saline. Saline (CS−) and test/control articles (CS+, at 800 and 1100 mg/kg of exemplary A. muscaria aqueous extract AME-1 or 20 mg/kg cocaine) were administered via oral gavage at a dose volume of 5 mL/kg. After two sets of conditioning trials during the conditioning phase, each rat was retested for free-choice side preference (Days 5 and 12). Each rat received eight stimulus environmental pairing sessions (e.g., four test article and four saline) and two CPP test sessions (T1, T2). The study design was as follows:
The following parameters and endpoints were evaluated in this study: mortality, clinical signs, body weights, and CPP testing. During CPP testing sessions, the following parameters were assessed: 1) Total time spent in the black and/or white (Compartment 1 and 3) compartments, which were used to calculate the “preference score,” and these values expressed as a percentage of time in the two conditioning compartments; 2) Total number of beam breaks in each conditioning compartment; and 3) Preference score expressed as a percentage of time in the 2 conditioning compartments. Only preference scores for the CS+ expressed as a percentage of time in the 2 conditioning compartments were reported. A CPP was determined when the test subject spent more time in the test sample-paired compartment versus the vehicle-paired compartment. Conversely, a conditioned place aversion (CPA) was determined when the test subject spent more time in the vehicle-paired compartment versus the sample-paired compartment. Therefore, possible outcomes included whether AME-1 causes a dependence, an aversive effect, or no effect. The total time spent in the nonpreferred compartment+total time spent in both conditioning compartments was expressed as a percentage, and used as a measure of “side preference.” Side preference infers a hedonic valence for the environmental cues of the compartment. Initial side preferences/biases (Habituated Score-H) were used to determine which of two compartments would be paired with the targeted interoceptive states. After two CS-UCS pairings, groups were retested for side preference (Test 1-1; Test 2-2). A significant change score from the initial habituation test scores reflected a conditioned place approach (* p<0.05).

[2] = tested on: levels of serotonin (5-hydroxytryptamine), noradrenaline and dopamine in the brain; details: male rats and mice, cited from earlier work
GABA receptor = details: cited from earlier work; for Mechanism of action at the GABA receptor: Brehm et al., Walker et al.
[3] = after ingestion of Amanita mushrooms; cited from earlier work
[4] = cited from earlier work
[5] = stomach, liver and brain; cited from earlier work

## COC(=O)[C@H]1[C@@H](OC(=O)c2ccccc2)C[C@@H]2CC[C@H]1N2C [Cocaine]
[1]; Habituation
  Conditioned place preference score for CS+ (percentage of time in the 2 conditioning compartments), Mean: 39.593
  Conditioned place preference score for CS+, LSMean (least squares mean): 39.162
[1]; Overall
  Conditioned place preference score for CS+ (percentage of time in the 2 conditioning compartments), Mean: 49.665
[1]; Overall, different from Groups 1 and 3, p < 0.05
  Conditioned place preference score for CS+, LSMean (least squares mean): 49.639^a, f
[1]; Test 1
  Conditioned place preference score for CS+ (percentage of time in the 2 conditioning compartments), Mean: 61.194
  Conditioned place preference score for CS+, LSMean (least squares mean): 61.877
[1]; Test 2
  Conditioned place preference score for CS+ (percentage of time in the 2 conditioning compartments), Mean: 48.208
  Conditioned place preference score for CS+, LSMean (least squares mean): 47.822
[1]; 20 mg/kg oral gavage, positive control
  Outcome of CPP testing: conditioned place preference: did produce a CPP

## NCc1cc(=O)[nH]o1 [muscimol, 5-(Aminomethyl)-1,2-oxazol-3(2H)-one]
[2]; 3 mg/kg intraperitoneally
  Effect on brain levels of serotonin, noradrenaline and dopamine: affect the levels of serotonin (5-hydroxytryptamine), noradrenaline and dopamine in the brain
GABA receptor
  Mechanism of action at the GABA receptor: activation of the GABA receptor
GABA receptor; Worms et al.
  GABA agonist affinity and efficacy: GABA agonist of high affinity but of relatively low efficacy
[3]
  Time of detection in urine after ingestion: detected within an hour after ingestion
[4]; IV 8 μmol/kg 3H-muscimol, 150 g male Sprague Dawley rat
  Amount of the dose injected that crossed to the brain: approximately 0.02%
[4]; IV 8 μmol/kg 3H-muscimol, male Sprague Dawley rat
  Muscimol amount in the brain: approximately 200 pmol/g tissue
[4]; IV 8 μmol/kg, male Sprague Dawley rat
  Distribution at various brain regions: highest muscimol concentration being in the substantia nigra, the colliculi and the hypothalamus
[4]; after intravenous injection, rat
  Time until blood concentration was below limits of detection: ≤ 180 min
[4]; intracerebroventricular injection 1200 nmol/kg, rat
  Distribution in the corneum stratum compared to the hypothalamus, hippocampus and cortex: approximately 2 times
[4]; intravenous injection 8 μmol/kg, rat
  Tolerability (reports of adverse effects or toxicity): well-tolerated

## N[C@H](C(=O)O)c1cc(O)no1 [ibotenic acid, (S)-2-Amino-2-(3-hydroxyisoxazol-5-yl) acetic acid]
[2]; 16 mg/kg intraperitoneally
  Effect on brain levels of serotonin, noradrenaline and dopamine: affect the levels of serotonin (5-hydroxytryptamine), noradrenaline and dopamine in the brain
GABA receptor
  Mechanism of action at the GABA receptor: activation of the GABA receptor
[3]
  Time of detection in urine after ingestion: detected within an hour after ingestion
[5]
  Metabolic fate: metabolized by decarboxylation in the stomach, liver, and brain to equal amounts of muscimol

Reference: patent publication US20240269206A1, “AMANITA […] EXTRACTS AND COMPOUNDS AND THEIR […] […] USE” (priority 2021, published 2024)
